In patent publication US20080138853A1, “Method for evaluating the degree of maturity of corneocytes” (priority 2000, published 2008):

Key:
[1] = system: human epidermal keratinocytes; assay: CE formation-promoting effect in cultured epidermal keratinocytes (involucrin immunostaining and Nile Red staining of CE); format: cell-based; details: 100 μM fatty acid in MEM containing 0.1% bovine serum albumin, confluent keratinocytes, cultured one week; growth medium control 15.83 ± 3.49
Description: Further, culture was continued for one week. […] The insoluble substances thus obtained were CE.

[2] = system: horny layer of upper arm inside (cornified envelope); assay: Involucrin-positive CE in experimental rough skin on the inside of the upper arm; format: in vivo, human; details: SDS-induced experimental rough skin, 3 to 4 specimens, non-treated group 0.09 ± 0.04
Description: A cellophane adhesive tape was adhered on a face (cheek) and an upper arm of an examinee having skin troubles such as rough skin and immediately peeled off. […] The insoluble substances thus obtained was CE.
A result obtained by staining CE originating in the face of a person troubled with rough skin in the manner described above is shown in FIG. 1 (drawing substitute photograph), and shown in FIG. 2 (drawing substitute photograph) is a result obtained by staining CE originating in a horny layer obtained by experimental rough skin induced by sodium dodecylsulfate (SDS) processing or tape stripping on inside of upper arm without any skin troubles.
Further, the proportions of the involucrin-positive CE's in the SDS treated group and the tape stripping group in the experimental rough skin described above are shown in Table 1 in comparison with that of the involucrin-positive CE in the non-processed group (each 3 to 4 specimens).

Compound	Proportion of involucrin-positive CE (%) average ± SD [1]	Proportion of involucrin-positive CE (%) average ± SD [2]
CCCCC/C=C\C/C=C\CCCCCCCC(=O)O [linoleic acid]	0 (not detected) %	–
CCCCCCCCCCCCOS(=O)(=O)[O-].[Na+] [SDS, sodium dodecylsulfate]	–	6.21 ± 2.96%
CCCCCCCC/C=C\CCCCCCCC(=O)O [oleic acid]	0 (not detected) %	–
